Source: patent publication US8362000B2, “Azetidinyl diamides as monoacylglycerol lipase inhibitors” (Janssen Pharmaceutica NV, priority 2009, dated 2013)
Where a chain is given by its changes, count along the chain named. Read-outs that look alike come from different tables or passages of the source.

How the values were obtained:
mutant MGL = target: T1, mutant MGL (Homo sapiens, UniProt Q99685, L169S/L176S); test: MGL ThermoFluor assay - mutant; format: binding
T1 sequence (Q99685 1-303 L169S/L176S): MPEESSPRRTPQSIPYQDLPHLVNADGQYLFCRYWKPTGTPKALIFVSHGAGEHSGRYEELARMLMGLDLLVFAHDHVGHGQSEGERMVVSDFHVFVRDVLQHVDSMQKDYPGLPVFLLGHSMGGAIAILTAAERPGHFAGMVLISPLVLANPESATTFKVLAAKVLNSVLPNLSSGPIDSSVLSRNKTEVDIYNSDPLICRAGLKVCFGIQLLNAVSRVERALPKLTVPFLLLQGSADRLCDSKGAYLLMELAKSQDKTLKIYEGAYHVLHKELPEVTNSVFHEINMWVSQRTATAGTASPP

[1] = target: T2, purified wild type MGL (wt-MGLL 6H-11-313) (Homo sapiens, UniProt Q99685)
T2 sequence (Q99685 1-303): T1 sequence (Q99685 1-303 L169S/L176S) with S169L, S176L

[2] = ThermoFluor thermal stability binding assay, read-out: MGL mutant ThermoFluor Kd
[3] = compound concentration measured by qNMR, read-out: MGL mutant ThermoFluor qKd (using qNMR conc.)
[4] = ThermoFluor concentration-response, read-out: MGL mutant ThermoFluor Kd
[5] = ThermoFluor, compound concentration measured by qNMR, read-out: MGL mutant ThermoFluor qKd (μM) (using qNMR conc.)
[6] = ThermoFluor, compound concentration measured by qNMR, read-out: MGL mutant ThermoFluor qKd (using qNMR conc.)

SMILES | IC50 [1] | Kd (mutant MGL; [4]) | other results
N#Cc1ccc(N2CCC(C(=O)N3CC(N4CCN(C(=O)c5nccs5)CC4)C3)CC2)cc1 [Cpd 646] | 7160 nM | 1.61 µM | 
O=C(c1cc2cc(Cl)ccc2o1)N1CCN(C2CN(C(=O)c3nccs3)C2)CC1 [Cpd 785] | 1190 nM | 0.5 µM | 
O=C(c1nc2cc(-c3ccc(F)cc3)ccc2[nH]1)N1CC(N2CCN(C(=O)c3nccs3)CC2)C1 [Cpd 1294, 5-(4-Fluorophenyl)-2-({3-[4-(1,3-thiazol-2-ylcarbon-yl)piperazin-1-yl]azetidin-1-yl}carbonyl)-1H-benzimidazole] | 3230 nM |  | Kd (mutant MGL; [5]): 4.41 µM
O=C(c1ccc(-c2ccc(C(F)(F)F)s2)cc1)N1CC(N2CCN(C(=O)c3cncs3)CC2)C1 [Cpd 1268] | 1220 nM |  | Kd (mutant MGL; [3]): 0.039 µM
O=C(c1ccc(Oc2cc(C(F)(F)F)ccn2)cc1)N1CC(N2CCN(C(=O)C(F)(F)F)CC2)C1 [Cpd 837] | 5040 nM |  | Kd (mutant MGL; [3]): 20 µM
Cc1nc2cc(C(=O)N3CC(N4CCN(C(=O)c5nccs5)CC4)C3)ccc2n1CC(F)(F)F [Cpd 789] | 1370 nM |  | Kd (mutant MGL; [3]): 0.043 µM
O=C(c1cscn1)N1CCN(C2CN(C(=O)c3cc4cc(Br)cnc4o3)C2)CC1 [Cpd 1448] | > 16700 nM |  | Kd (mutant MGL; [2]): 7.09 µM
O=C(c1cscn1)N1CC(N2CCN(C(=O)c3cc4nc(C(F)(F)F)ccc4[nH]3)CC2)C1 [Cpd 830] | 3940 nM |  | Kd (mutant MGL; [6]): 1.96 µM
CCCCCCCCCCCCCCCCCCCC(=O)N1CC(N2CCN(C(=O)c3nccs3)CC2)C1 [Cpd 640] | 15900 nM | 25 µM | 
O=C(c1ccccc1)N1CCN(C2CN(C(=O)c3cc4cc(Cl)ccc4o3)C2)CC1 [Cpd 1491] | > 16700 nM |  | Kd (mutant MGL; [2]): 12.5 µM
O=C(c1ccc(CNc2cccc(Cl)c2)cc1)N1CC(N2CCN(C(=O)C(F)(F)F)CC2)C1 [Cpd 964] | 1700 nM |  | Kd (mutant MGL; [3]): 3.2 µM
O=C(c1cc2cc(Br)cnc2o1)N1CC(N2CCN(C(=O)c3nccs3)CC2)C1 [Cpd 864] | 10200 nM | 2.41 µM | 
O=C(c1nn(-c2ccc(Cl)cc2Cl)c2c1CCCC2)N1CC(N2CCN(C(=O)C(F)(F)F)CC2)C1 [Cpd 1311] | 14600 nM |  | Kd (mutant MGL; [3]): 67.5 µM
O=C(c1cnc(NCc2ccccc2)s1)N1CC(N2CCN(C(=O)c3nccs3)CC2)C1 [Cpd 795] | 1500 nM | 1.1 µM | 
NC(=O)c1ccc(Cn2ncc3cc(C(=O)N4CC(N5CCN(C(=O)c6nccs6)CC5)C4)ccc32)cc1 [Cpd 1044, 4-{[5-({3-[4-(1,3-Thiazol-2-ylcarbonyl)piperazin-1-yl]azetidin-1-yl]carbonyl)-1H-indazol-1-yl}methyl}benzamide] | 718 nM |  | Kd (mutant MGL; [3]): 0.945 µM
COc1cccc2c(C)c(C(=O)N3CCN(C4CN(C(=O)c5cscn5)C4)CC3)[nH]c12 [Cpd 857] | 8720 nM | 3.33 µM | 
O=C(c1cnn(-c2ccccc2)n1)N1CC(N2CCN(C(=O)c3nccs3)CC2)C1 [Cpd 1300] | 4130 nM | 3.33 µM | 
COc1ccc2cc(C(=O)N3CC(N4CCN(C(=O)c5nccs5)CC4)C3)c(C)nc2c1 [Cpd 845] | 6420 nM |  | Kd (mutant MGL; [6]): 1.62 µM
O=C(c1cn[nH]c1)N1CCN(C2CN(C(=O)c3ccc(-c4ccccc4)cc3)C2)CC1 [Cpd 1310] | 11600 nM |  | Kd (mutant MGL; [2]): 8.35 µM
O=C(c1cc2ccc(C(F)(F)F)nc2o1)N1CCN(C2CN(C(=O)c3nccs3)C2)CC1 [Cpd 860] | 8820 nM | 1.76 µM | 
Cc1nc2ccc(Cl)cc2cc1C(=O)N1CC(N2CCN(C(=O)c3nccs3)CC2)C1 [Cpd 835] | 4700 nM |  | Kd (mutant MGL; [6]): 2.45 µM

These reach a lower IC50 [1]. Values come first.

IC50 [1] | Kd (mutant MGL; [4]) | SMILES | other results
143 nM |  | Cc1c(C(=O)N2CC(N3CCN(C(=O)c4cscn4)CC3)C2)nn(-c2ccc(Cl)cc2Cl)c1-c1ccc(Cl)cc1 [Cpd 1198] | Kd (mutant MGL; [2]): 0.03 µM
115 nM |  | Cc1cc2c(ccn2-c2ccc(F)cc2)cc1C(=O)N1CC(N2CCN(C(=O)c3nccs3)CC2)C1 [Cpd 1415] | Kd (mutant MGL; [3]): 0.011 µM
216 nM |  | Cc1nc2cc(C(=O)N3CC(N4CCN(C(=O)c5nccs5)CC4)C3)ccc2n1-c1ccc(C(F)(F)F)cc1 [Cpd 1215] | Kd (mutant MGL; [3]): 0.006 µM
384 nM | 0.04 µM | Cc1c(C(=O)N2CCN(C3CN(C(=O)c4cc[nH]c4)C3)CC2)sc2cc(C(F)(F)F)ccc12 [Cpd 748] | 
535 nM |  | Cc1c(C(=O)N2CC(N3CCN(C(=O)c4cscn4)CC3)C2)n(C)c2ccc(Cl)cc12 [Cpd 758] | Kd (mutant MGL; [6]): 0.5 µM
< 5 nM |  | O=C(c1ccc(-c2nc(-c3cccc(C(F)(F)F)c3)cs2)cc1)N1CC(N2CCN(C(=O)c3nccs3)CC2)C1 [Cpd 1332] | Kd (mutant MGL; [6]): 0.008 µM
16 nM |  | O=C(c1cnc2c(ccn2Cc2ccc(F)cc2)c1)N1CC(N2CCN(C(=O)c3nccs3)CC2)C1 [Cpd 1043, 1-(4-Fluorobenzyl)-5-({3-[4-(1,3-thiazol-2-ylcarbonyl)piperazin-1-yl]azetidin-1-yl}carbonyl)-1H-pyrrolo[2,3-b]pyridine] | Kd (mutant MGL; [3]): 0.055 µM
118 nM | 0.1 µM | O=C(c1ccc2[nH]c(-c3ccccc3)nc2c1)N1CC(N2CCN(C(=O)c3nccs3)CC2)C1 [Cpd 1194] | 
260 nM | 0.05 µM | O=C(c1ccccc1)N1CCN(C2CN(C(=O)c3sc4cc(Cl)ccc4c3C(F)(F)F)C2)CC1 [Cpd 512] | 
5 nM |  | O=C(c1ccc2nn(Cc3cccc(C(F)(F)F)c3)cc2c1)N1CC(N2CCN(C(=O)c3nccs3)CC2)C1 [Cpd 1039, 5-({3-[4-(1,3-Thiazol-2-ylcarbonyl)piperazin-1-yl]azetidin-1-yl}carbonyl)-2-[3-(trifluoromethyl)benzyl]-2H-indazole] | Kd (mutant MGL; [3]): 0.007 µM
373 nM |  | O=C(c1nccs1)N1CC(N2CCN(C(=O)c3[nH]c4nc(C(F)(F)F)ccc4c3Br)CC2)C1 [Cpd 746] | Kd (mutant MGL; [6]): 0.263 µM
34 nM |  | Cc1ccc(-n2ccc3cc(C(=O)N4CC(N5CCN(C(=O)c6nccs6)CC5)C4)ccc32)nc1 [Cpd 1073, 1-(5-Methylpyridin-2-yl)-5-({3-[4-(1,3-thiazol-2-ylcarbonyl)piperazin-1-yl]azetidin-1-yl}carbonyl)-1H-indole] | Kd (mutant MGL; [6]): 0.087 µM
377 nM | 0.111 µM | O=C(c1cc2cc(C(F)(F)F)ccc2[nH]1)N1CCN(C2CN(C(=O)c3nccs3)C2)CC1 [Cpd 747] | 
266 nM |  | O=C(c1ccc(-c2ccccc2)cc1)N1CC(N2CCN(C(=O)c3cocn3)CC2)C1 [Cpd 1222] | Kd (mutant MGL; [2]): 0.068 µM
680 nM |  | CC1(C)Cc2cc(C(=O)N3CC(N4CCN(C(=O)c5nccs5)CC4)C3)ccc2O1 [Cpd 766] | Kd (mutant MGL; [6]): 0.378 µM
< 5 nM |  | Cc1c(C(=O)N2CC(N3CCN(C(=O)c4nccs4)CC3)C2)sc2ccc(C(F)(F)F)cc12 [Cpd 897] | Kd (mutant MGL; [2]): 0.002 µM
9 nM |  | O=C(c1ccc(-c2cccc(C(F)(F)F)c2)cc1)N1CC(N2CCN(C(=O)c3cc(Br)cs3)CC2)C1 [Cpd 1087] | Kd (mutant MGL; [5]): 0.023 µM
519 nM | 0.383 µM | O=C(c1cc2ccc(C(F)(F)F)cc2[nH]1)N1CC(N2CCN(C(=O)c3nccs3)CC2)C1 [Cpd 756] | 
16 nM |  | COc1cc(-n2ccc3cc(C(=O)N4CC(N5CCN(C(=O)c6nccs6)CC5)C4)ccc32)ccc1C#N [Cpd 1115] | Kd (mutant MGL; [5]): 0.005 µM
135 nM |  | O=C(c1cccc(NCc2ccccc2)c1)N1CC(N2CCN(C(=O)c3nccs3)CC2)C1 [Cpd 713] | Kd (mutant MGL; [2]): 0.1 µM
161 nM | 0.76 µM | Cc1c(Cc2ccc(C(F)(F)F)cc2)cccc1C(=O)N1CC(N2CCN(C(=O)c3ccc[nH]3)CC2)C1 [Cpd 1013] | 
< 5 nM |  | O=C(c1ccc2c(cnn2Cc2ccc(C(F)(F)F)cc2)c1)N1CC(N2CCN(C(=O)c3nccs3)CC2)C1 [Cpd 1036, 5-({3-[4-(1,3-Thiazol-2-ylcarbonyl)piperazin-1-yl]azetidin-1-yl}carbonyl)-1-[4-(trifluoromethyl)benzyl]-1H-indazole] | Kd (mutant MGL; [3]): 0.005 µM
< 5 nM |  | O=C(c1ccc(-c2cccc(C(F)(F)F)c2)cc1)N1CC(N2CCN(C(=O)c3nccs3)CC2)C1 [Cpd 237, 1-(1,3-Thiazol-2-ylcarbonyl)-4-(1-{[3′-(trifluoromethyl)biphenyl-4-yl]carbonyl}azetidin-3-yl)piperazine] | Kd (mutant MGL; [2]): 0.001 µM
267 nM | 0.111 µM | O=C(c1ccc(-n2cnc3ccccc32)cc1)N1CC(N2CCN(C(=O)c3nccs3)CC2)C1 [Cpd 1223] | 
109 nM |  | O=C(c1ccc2c(ccn2-c2cccnc2)c1)N1CC(N2CCN(C(=O)c3nccs3)CC2)C1 [Cpd 1192, 1-Pyridin-3-yl-5-({3-[4-(1,3-thiazol-2-ylcarbonyl)piperazin-1-yl]azetidin-1-yl}carbonyl)-1H-indole] | Kd (mutant MGL; [6]): 0.035 µM
18 nM |  | O=C(c1ccc2c(ccn2-c2ccc(F)cn2)c1)N1CC(N2CCN(C(=O)c3nccs3)CC2)C1 [Cpd 1121, 1-(5-Fluoropyridin-2-yl)-5-({3-[4-(1,3-thiazol-2-ylcarbonyl)piperazin-1-yl]azetidin-1-yl}carbonyl)-1H-indole] | Kd (mutant MGL; [6]): 0.042 µM
